Measured values as given in US20050250801A1, “Method of treating cancer with azaspirane compositions” (priority 2003, published 2005).
Like-named read-outs stand apart in the source and are kept apart here.

Key:
Assay type in all cases: cell-based
CaCo-2 cells = test: Inhibition of proliferation of CaCo-2 cells (WST-1, Example 8); details: Homo sapiens, 12 hours
Procedure: The effect of N,N,-diethyl-8,8-dipropyl-2-azaspiro[4,5]decane-2-propanamine dimaleate (Compound 1) and other analogs (structures shown in Table 7) on proliferation of CaCo-2, a human colon carcinoma cell line, were evaluated in the following manner. Cell proliferation was measured by WST-1 dye conversion to Formazan assay using a proliferation kit from BioVision, CA. The procedure used was essentially the same as described in the manufacture's instructions. Briefly, cells were grown for 7 days until they formed semi-confluent monolayers. On day 7, cells were trypsinized and re-suspended in 96-well plates at a concentration of approximately 50,000 cells/well. […] A solution of 10 μl of WST-1 dye per well was added and plates were read after 4 hours at 440 and 600 nm using an ELISA plate reader. The absorbance at 440-600 nm is directly proportion to the number of proliferating cells. All samples were measured in duplicate and results were expressed as an average of two determinations.

BT-549 = test: NCI in vitro SRB assay, Breast Cancer
Procedure: (§1) An in vitro assay which tested the ability of N,N,-diethyl-8,8-dipropyl-2-azaspiro[4,5]decane-2-propanamine dimaleate (Compound 1) to inhibit the growth of known cancer cell lines was performed by the National Cancer Institute in accordance with standard procedures. See: Lin, Z. X., Hoult, J. R., and Raman, A. Sulphorhodamine B assay for measuring proliferation of a pigmented melanocyte cell line and its application to the evaluation of crude drugs used in the treatment of vitiligo. J Ethnopharmacol. 66: 141-150, 1999. Briefly, selected tumor cell lines were cultured in media containing five different concentrations of Compound 1. After 48 hours of continuous exposure, a sulforhodamine B (SRB) assay was used to estimate cell viability or growth via optical measurements.
(§2) From the measurements, the following values were determined: 1) the concentration of Compound 1 at which a tumor cell growth inhibition of 50% (relative to control) occurs (GI50), 2) the concentration of Compound 1 at which no growth occurs (total growth inhibition, TGI), and 3) the concentration of Compound 1 at which the […] (LC 50). […] FIG. 6 illustrates, graphically, tumor cell growth as a function of Compound 1 concentration of the scanned tumor cell lines.

HS 578T = test: NCI in vitro SRB assay, Breast Cancer; details: for CC50 / GI50: Homo sapiens; for CC50: Hs-578T
Procedure: as §1, §2

MCF7 = test: NCI in vitro SRB assay, Breast Cancer; details: for CC50 / GI50: Homo sapiens
Procedure: as §1, §2

MDA-MB-435 = test: NCI in vitro SRB assay, Breast Cancer; details: for CC50 / GI50: Homo sapiens
Procedure: as §1, §2

NCI/ADR-RES = test: NCI in vitro SRB assay, Breast Cancer; details: for GI50: Homo sapiens
Procedure: as §1, §2

T-47D = test: NCI in vitro SRB assay, Breast Cancer
Procedure: as §1, §2

[1] = BT-549, Log10 conc -4.0 Moles/L
[2] = BT-549, Log10 conc -5.0 Moles/L
[3] = BT-549, Log10 conc -6.0 Moles/L
[4] = BT-549, Log10 conc -7.0 Moles/L
[5] = BT-549, Log10 conc -8.0 Moles/L
[6] = HS 578T, Log10 conc -4.0 Moles/L
[7] = HS 578T, Log10 conc -5.0 Moles/L
[8] = HS 578T, Log10 conc -6.0 Moles/L
[9] = HS 578T, Log10 conc -7.0 Moles/L
[10] = HS 578T, Log10 conc -8.0 Moles/L
[11] = MDA-MB-435, Log10 conc -4.0 Moles/L
[12] = MDA-MB-435, Log10 conc -5.0 Moles/L
[13] = MDA-MB-435, Log10 conc -6.0 Moles/L
[14] = MDA-MB-435, Log10 conc -7.0 Moles/L
[15] = MDA-MB-435, Log10 conc -8.0 Moles/L

Work on `CCCC1(CCC)CCC2(CCN(CCCN(CC)CC)C2)CC1.O=C(O)/C=C\C(=O)O.O=C(O)/C=C\C(=O)O` [Compound 1, N,N,-diethyl-8,8-dipropyl-2-azaspiro[4,5]decane-2-propanamine dimaleate] yielded an inhibition at 5 µM (CaCo-2 cells; 5 μM, read-out: % Inhibition of Proliferation at 5 μM Compound) of 85%, an IC50 (CaCo-2 cells) of about 2500 nM and a TGI (BT-549; BT-549) of 3.23 µM. The “Log10 TGI” value (BT-549; BT-549 (so in the source)) was −5.39, the “Mean Optical Densities” value (BT-549; [1]) was 0.007 and the “Percent Growth” value (BT-549; [1]) was −98%. For the same compound, the “Mean Optical Densities” value (BT-549; [2]) was 0.027, the “Percent Growth” value (BT-549; [2]) was −94% and the “Mean Optical Densities” value (BT-549; [3]) was 0.856. For the same compound, the “Percent Growth” value (BT-549; [3]) was 98%, the “Mean Optical Densities” value (BT-549; [4]) was 0.904 and the “Percent Growth” value (BT-549; [4]) was 109%. For the same compound, the “Mean Optical Densities” value (BT-549; [5]) was 0.859, the “Percent Growth” value (BT-549; [5]) was 98% and the CC50 (BT-549; Homo sapiens, BT-549, read-out: LC50) was 5.89 µM. For the same compound, the GI50 (BT-549; Homo sapiens, BT-549, read-out: GI50) was 1770 nM, the GI50 (BT-549; Homo sapiens, BT-549 (so in the source), read-out: Log10 GI50 (converted)) was 1700 nM and the TGI (HS 578T; HS 578T) was 3.96 µM. For the same compound, the “Log10 TGI” value (HS 578T; HS 578T (so in the source)) was −6.09, the “Mean Optical Densities” value (HS 578T; [6]) was 0.264 and the “Percent Growth” value (HS 578T; [6]) was −62%. The “Mean Optical Densities” value (HS 578T; [7]) was 0.269, the “Percent Growth” value (HS 578T; [7]) was −61% and the “Mean Optical Densities” value (HS 578T; [8]) was 1.217. The “Percent Growth” value (HS 578T; [8]) was 91%, the “Mean Optical Densities” value (HS 578T; [9]) was 1.258 and the “Percent Growth” value (HS 578T; [9]) was 98%. For the same compound, the “Mean Optical Densities” value (HS 578T; [10]) was 1.206, the “Percent Growth” value (HS 578T; [10]) was 89% and the CC50 (HS 578T; read-out: LC50) was 8.43 µM. The CC50 (HS 578T; read-out: Log10 LC50 (converted)) was 6.17 µM, the GI50 (HS 578T; HS 578T (so in the source), read-out: Log10 GI50 (converted)) was 269 nM and the GI50 (HS 578T; HS 578T, read-out: GI50) was 1860 nM. For the same compound, the CC50 (MCF7; MCF7, read-out: LC50) was 5.6 µM, the CC50 (MCF7; MCF7, read-out: Log10 LC50 (converted)) was 5.62 µM and the GI50 (MCF7; MCF7, read-out: GI50) was 1330 nM. For the same compound, the GI50 (MCF7; MCF7, read-out: Log10 GI50 (converted)) was 1320 nM, the “Log10 TGI” value (MCF7; MCF7) was −5.56 and the TGI (MCF7; MCF7) was 2.73 µM. For the same compound, the “Mean Optical Densities” value (MCF7; MCF7, Log10 conc -4.0 Moles/L) was 0.051, the “Percent Growth” value (MCF7; MCF7, Log10 conc -4.0 Moles/L) was −70% and the “Mean Optical Densities” value (MCF7; MCF7, Log10 conc -5.0 Moles/L) was 0.017. For the same compound, the “Percent Growth” value (MCF7; MCF7, Log10 conc -5.0 Moles/L) was −90%, the “Mean Optical Densities” value (MCF7; MCF7, Log10 conc -6.0 Moles/L) was 0.996 and the “Percent Growth” value (MCF7; MCF7, Log10 conc -6.0 Moles/L) was 70%. The “Mean Optical Densities” value (MCF7; MCF7, Log10 conc -7.0 Moles/L) was 1.339, the “Percent Growth” value (MCF7; MCF7, Log10 conc -7.0 Moles/L) was 99% and the “Mean Optical Densities” value (MCF7; MCF7, Log10 conc -8.0 Moles/L) was 1.311. The “Percent Growth” value (MCF7; MCF7, Log10 conc -8.0 Moles/L) was 96%, the CC50 (MDA-MB-435; MDA-MB-435, read-out: LC50) was 6.19 µM and the CC50 (MDA-MB-435; MDA-MB-435, read-out: Log10 LC50 (converted)) was 5.89 µM. For the same compound, the GI50 (MDA-MB-435; MDA-MB-435, read-out: GI50) was 267 nM, the GI50 (MDA-MB-435; MDA-MB-435 (so in the source), read-out: Log10 GI50 (converted)) was 1780 nM and the TGI (MDA-MB-435; MDA-MB-435) was 807 nM. For the same compound, the “Log10 TGI” value (MDA-MB-435; MDA-MB-435 (so in the source)) was −5.49, the “Mean Optical Densities” value (MDA-MB-435; [11]) was 0.244 and the “Percent Growth” value (MDA-MB-435; [11]) was −58%. The “Mean Optical Densities” value (MDA-MB-435; [12]) was 0.230, the “Percent Growth” value (MDA-MB-435; [12]) was −61% and the “Mean Optical Densities” value (MDA-MB-435; [13]) was 0.528. For the same compound, the “Percent Growth” value (MDA-MB-435; [13]) was −10%, the “Mean Optical Densities” value (MDA-MB-435; [14]) was 1.517 and the “Percent Growth” value (MDA-MB-435; [14]) was 94%. For the same compound, the “Mean Optical Densities” value (MDA-MB-435; [15]) was 1.613, the “Percent Growth” value (MDA-MB-435; [15]) was 104% and the “Log10 TGI” value (NCI/ADR-RES) was −5.40. For the same compound, the TGI (NCI/ADR-RES) was 3.95 µM, the GI50 (NCI/ADR-RES; read-out: GI50) was 1830 nM and the GI50 (NCI/ADR-RES; read-out: Log10 GI50 (converted)) was 1820 nM. The “Mean Optical Densities” value (NCI/ADR-RES; Log10 conc -4.0 Moles/L) was 0.081, the “Percent Growth” value (NCI/ADR-RES; Log10 conc -4.0 Moles/L) was −85% and the “Mean Optical Densities” value (NCI/ADR-RES; Log10 conc -5.0 Moles/L) was 0.208. For the same compound, the “Percent Growth” value (NCI/ADR-RES; Log10 conc -5.0 Moles/L) was −61%, the “Mean Optical Densities” value (NCI/ADR-RES; Log10 conc -6.0 Moles/L) was 1.220 and the “Percent Growth” value (NCI/ADR-RES; Log10 conc -6.0 Moles/L) was 89%. The “Mean Optical Densities” value (NCI/ADR-RES; Log10 conc -7.0 Moles/L) was 1.227, the “Percent Growth” value (NCI/ADR-RES; Log10 conc -7.0 Moles/L) was 90% and the “Mean Optical Densities” value (NCI/ADR-RES; Log10 conc -8.0 Moles/L) was 1.254. For the same compound, the “Percent Growth” value (NCI/ADR-RES; Log10 conc -8.0 Moles/L) was 94%, the TGI (T-47D) was 4.11 µM and the GI50 (T-47D; Homo sapiens, T47D) was 1710 nM. The “Mean Optical Densities” value (T-47D; Log10 conc -4.0 Moles/L) was 0.207, the “Percent Growth” value (T-47D; Log10 conc -4.0 Moles/L) was −38% and the “Mean Optical Densities” value (T-47D; Log10 conc -5.0 Moles/L) was 0.164. For the same compound, the “Percent Growth” value (T-47D; Log10 conc -5.0 Moles/L) was −51%, the “Mean Optical Densities” value (T-47D; Log10 conc -6.0 Moles/L) was 1.024 and the “Percent Growth” value (T-47D; Log10 conc -6.0 Moles/L) was 81%. For the same compound, the “Mean Optical Densities” value (T-47D; Log10 conc -7.0 Moles/L) was 1.176, the “Percent Growth” value (T-47D; Log10 conc -7.0 Moles/L) was 98% and the “Mean Optical Densities” value (T-47D; Log10 conc -8.0 Moles/L) was 0.837. The “Percent Growth” value (T-47D; Log10 conc -8.0 Moles/L) was 59%.
